The test system of one series is Molt-4. Put plainly: Growth inhibition, neutral red assay, Molt-4. Conditions: Homo sapiens, HCl salt. The format is cell-based. The protocol: (§1) Compound I's activity is not confined to activity against colon cancer cell lines or animal models of colon cancer. It has a broad range of anti-neoplastic effects in various neoplastic cell lines. Various types of human cancer cell lines were propagated under sterile conditions in RPMI 1640 medium with 10% fetal bovine serum, 2 mM L-glutamine and sodium bicarbonate. To determine growth inhibitory effects of Compound I, cells were seeded in 96-well plates at a density of 1000 cells per well. Twenty-four hours after plating, the cells were dosed with various concentrations of the free base of Compound I solubilized in DMSO (final concentration 0.1%). The effect of the drug on tumor cell growth was determined using the neutral red cytotoxicity assay following five days of continuous treatment. Neutral red is a dye that is selectively taken up by viable cells by an ATP-dependent transport mechanism.

The test system of series [1] is LNCaP prostate tumor cell line. Put plainly: Histone-associated DNA fragmentation in prostate tumor cells. The series is classed as cell-based. Conditions: 50 μM free base, after 24 hours, sustained up to 4 days. The protocol: (§2) The androgen-sensitive prostate tumor cell line, LNCaP (from ATCC (Rockville, Md.)) was propogated under standard conditions using […] medium containing 5% fetal calve serum and 2 mM glutamine. Primary prostate epithelial cell cultures (PrEC) derived from normal prostate (from Clonetics Inc. (San Diego, Calif.)) were grown under the same conditions as the tumor cell line except a serum-free medium optimized for the growth of such cultures was used (Clonetics Inc). For the experiments, LNCaP or PrEC cells were seeded in 96 well plates at a density of 10,000 cells per well. After 24 hours, the cells were treated with either vehicle (0.1% DMSO) or 50 μM Compound I (free base) solubilized in DMSO. After various drug treatment times (4, 24, 48, 72, or 99 hours) the cells were lysed and processed for measurement of histone-associated DNA as an indicator of apoptotic cell death (see, Piazza et al., Cancer Research 57: 2452-2459, 1997).
(§3) This is in marked contrast to conventional chemotherapeutics that induce apoptosis or necrosis in rapidly growing normal and neoplastic cells alike.

For another series, the system named is Colo 205. Put plainly: Growth inhibition, neutral red assay, Colo 205. The series is classed as cell-based, human. Conditions: free base, five days. The protocol:
as §1

The nature of series [2]: Single, escalating dose human safety study. The format is in vivo. Conditions: single escalating oral doses.
Series [3] deals with PrEC primary prostate epithelial cell cultures. Briefly: Histone-associated DNA fragmentation in normal prostate epithelial cells. The format is cell-based. Conditions: 50 μM, up to 4 days. The procedure:
as §2, §3

The conditions of series [4]: dog, in vivo.
Another series concerns NCI-H322M. Put plainly: Growth inhibition, neutral red assay, NCI-H322M. The series is classed as cell-based, human. The following applies: free base, five days. The procedure: as §1
Series [5] has as its system SW-480 colon adenocarcinoma cells. Briefly: Apoptosis induction determined by morphology, SW-480. The format is cell-based, human. From the text:
Following treatment with a compound, cultures can be assayed for apoptosis and necrosis by florescent microscopy following labeling with acridine orange and ethidium bromide. The method for measuring apoptotic cell number has previously been described by Duke & Cohen, “Morphological And Biochemical Assays Of Apoptosis,” Current Protocols In Immunology, Coligan et al., eds., 3.17.1-3.17.16 (1992, which is incorporated herein by reference).
For example, floating and attached cells can be collected by trypsinization and washed three times in PBS. Aliquots of cells can be centrifuged. The pellet can then be re-suspended in media and a dye mixture containing acridine orange and ethidium bromide prepared in PBS and mixed gently. The mixture can then be placed on a microscope slide and examined for morphological features of apoptosis.
In addition, the percent apoptosis for Compound I in SW-480 is shown in Table 12 at various drug concentrations.

Series [6] deals with PKG activity in HCT116 colon cancer cells. Briefly: PKG assay of lysates of drug-treated HCT116 cells. The series is classed as cell-based. From the text: To test the effect of cGMP-specific PDE inhibition on neoplasia containing the β-catenin mutation, HCT116 colon cancer cells were employed. HCT116 is known to contain the β-catenin mutation, but is known not to contain the APC mutation.
The same procedure is used to grow the HCT116 cells as is used in the SW480 procedure described above. In this experiment, only exisulind and controls were used.

For series [7], the system named is HT-29 colon adenocarcinoma cells. Briefly: Apoptosis by DNA fragmentation assay in HT-29. Also: key: −: Not active; +: Slightly active; ++: Moderately active; +++: Strongly active; ++++: Highly active. The series is classed as cell-based, human. Conditions: qualitative activity profile.
Series [8] addresses T1, cGMP binding sites of the GST-cGB-PDE5 protein (Homo sapiens, UniProt O76074).
T1 construct: made in house; host or cells: E. coli BL21 (DE3)
Briefly: cGMP binding assay with GST-cGB-PDE5 fusion protein. The following applies: 3H-cGMP 2 μM.

Series [9] concerns premalignant lesions in mouse mammary gland organ culture. Briefly: Mammary gland organ culture model. As to mammary gland organ culture: key: −: Not active; +: Slightly active; ++: Moderately active; +++: Strongly active; ++++: Highly active. The format is cell-based.

Molecules are shown by their SMILES. Structures can show the parent of a compound that is named as a salt.

T1 sequence (O76074 46-539 limits assumed): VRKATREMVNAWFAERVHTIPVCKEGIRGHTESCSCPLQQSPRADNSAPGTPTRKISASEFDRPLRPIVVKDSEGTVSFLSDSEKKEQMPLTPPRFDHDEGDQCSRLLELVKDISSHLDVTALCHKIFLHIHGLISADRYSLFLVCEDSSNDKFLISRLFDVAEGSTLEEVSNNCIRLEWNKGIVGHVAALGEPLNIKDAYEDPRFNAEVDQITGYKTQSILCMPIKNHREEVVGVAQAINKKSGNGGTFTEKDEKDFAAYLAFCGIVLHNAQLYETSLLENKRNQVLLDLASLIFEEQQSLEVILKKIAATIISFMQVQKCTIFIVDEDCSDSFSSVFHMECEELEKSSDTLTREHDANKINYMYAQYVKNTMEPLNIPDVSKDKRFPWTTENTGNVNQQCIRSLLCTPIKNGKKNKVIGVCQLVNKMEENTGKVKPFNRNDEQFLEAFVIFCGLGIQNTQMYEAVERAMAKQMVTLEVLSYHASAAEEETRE

As to `CC1=C(CC(=O)NCc2ccccc2)c2cc(F)ccc2/C1=C\c1ccncc1` [Compound I, (Z)-5-fluoro-2-methyl-(4-pyridylidene)-3-(N-benzyl)indenylacetamide hydrochloride], the GI50 worked out at 1.6 µM in the series on Molt-4; 1.6 µM in the series on Colo 205 (Homo sapiens, COLO 205, 120 h); 2.1 µM with NCI-H322M (Homo sapiens, NCI-H322M, 120 h). In addition, the “histone-associated fragmented DNA in LNCaP” value in [1] was “significant increase in fragmented DNA”. Moreover, the “GI90 μM, Colo 205” value with Colo 205 came out at 2.4 µM. For the same compound, in series [2], the “side effects in humans” value is “no significant side effects at any dose”. In series [3], the “DNA fragmentation in PrEC (normal prostate) cells” value is reported as “did not affect DNA fragmentation”. In addition, the “signs of toxicity, single dose in capsules” value in series [4] (1000 mg/kg) is reported as “no signs of toxicity”. Besides, the “drug-related effects, single and seven consecutive doses” value in series [4] (1000 mg/kg/day) is listed as “At no time in either dosing phase were any obvious signs of drug-related effects observed”. Besides, the “GI90 μM, NCI-H322M” value in the series with NCI-H322M turned out to be 13.2 µM. In addition, the entries for the “% Apoptosis” value in series [5] (0.35 μM), in series [5] (0.7 μM) and in [5] (1.5 μM) were 16%, 27% and 88%, respectively.

In the case of `CC1=C(CC(=O)O)c2cc(F)ccc2/C1=C\c1ccc(S(C)(=O)=O)cc1` [Exisulind, 5-fluoro-2-methyl-1-(p-methylsulfonylbenzylidene)-3-indenylacetic acid], the “PKG activation relative to controls” value in [6] is listed as “yielded PKG that was phosphorylated to a greater extent than the corresponding controls”. Moreover, in series [7], the Apoptosis result was “++”. Moreover, in [8], the “competition with cGMP in binding of GST-cGB-PDE5” value is “do not bind to the cGMP binding sites of PDE5”. In addition, the “inhibition of the formation of premalignant lesions” value in [9] (mammary gland organ culture) was “effectively inhibit the formation of premalignant lesions”. Also, the “Mammary Gland Organ Culture” value in series [9] (qualitative activity profile) was “+++”.

(Values after US20030109418A1, “Methods for identifying compounds for inhibition of neoplastic lesions, and pharmaceutical compositions containing such compounds” (priority 1999, published 2003).)
